Ends that are not written are not given here.
System: Male Wistar rats
Experiment: Rat spontaneous urination test (metabolism cage), Test Example 6
Format: in vivo
Conditions: aqueous 0.1 mg/mL LNDP solution as drinking for 7 days
Description: It was confirmed from Test Example 2 that LNDP promotes the efferent hypogastric nerve activity, and it was confirmed from Test Example 3 that LNDP inhibits the efferent the pelvic splanchnic nerve activity. Influence on the bladder, which is one of the internal organs dominated by these nerves, was therefore investigated.
Male Wistar rats which are 13 weeks old were received, and quarantined and acclimated in a thermostat animal room at 18 to 28° C. in a cycle including a 12-hour light period and a 12-hour dark period for 1 week, and ten 14- to 16-week-old rats per group were tested. An aqueous 0.1 mg/mL LNDP solution or water was ingested from drinking for 7 days, and the urination amount was measured as weight with an electronic balance installed under a urine-collecting opening in raising with a metabolism cage. The weight data of the electronic balance every minute were automatically inputted into a computer. […] The total urination amount and the frequency of urination per day were found, and the urine amount per one time of urination (=the total urination amount per day/the frequency of urination per day) was calculated as to an individual of each group. […] As to the comparison of the test substance and ingestion days with respect to each measured value, two-way analysis of variance (two-way ANOVA) with replication was performed.

significant difference in the general symptoms vs water ingestion group: not observed
Sequence: NIPPLTQTPVVVPPFLQPE [LNDP, Asn-Ile-Pro-Pro-Leu-Thr-Gln-Thr-Pro-Val-Val-Val-Pro-Pro-Phe-Leu-Gln-Pro-Glu]
significant difference in change in body weight vs water ingestion group: not observed

From US12178839B2, “Anti-obesity agent, pollakiuria improving agent, and autonomic nervous activity regulator” (ASAHI GROUP HOLDINGS, LTD., priority 2018, dated 2024)
